Data reported in US20240246941A1, “SUBSTITUTED 4-(3-AMINOPROP-1-YL)AMINOQUINOLINE ANALOGS AS MODULATORS OF MELANOMA-ASSOCIATED ANTIGEN 11 UBIQUITIN LIGASE” (ST. JUDE CHILDREN'S RESEARCH HOSPITAL, INC., priority 2020, published 2024).

target: MAGE-A11:PCF11 (Homo sapiens (Human), UniProt P43364); assay: TR-FRET single point screening at 15 μM; format: binding; design: unit not given here; conditions: single point TR-FRET screening at 15 μM against MAGE-A11:PCF11
Summary of the method: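 Competition TR-FRET: compounds at final 15 μM mixed with 200 nM FAM-PCF11_4, 5 nM GST-MAGEA11 and 5 nM Tb-anti-GST in Tris pH 7.5/MgCl2/BSA/DTT buffer, room temperature, 90 min. Emission ratio 520/490 nm (340 nm excitation) expressed as % inhibition relative to positive and negative controls.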

MAGE-A11:PCF11, sequence (P43364 218-429): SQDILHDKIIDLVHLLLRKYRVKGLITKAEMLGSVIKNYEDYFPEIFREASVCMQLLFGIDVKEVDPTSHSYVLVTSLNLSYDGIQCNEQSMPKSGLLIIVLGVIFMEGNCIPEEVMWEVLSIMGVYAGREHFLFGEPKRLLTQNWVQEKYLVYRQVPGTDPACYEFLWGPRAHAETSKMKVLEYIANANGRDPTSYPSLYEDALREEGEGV

Compound	TR-FRET signal
COc1ccc(CNCCCNc2c3ccc(Cl)cc3nc3ccc(OC)cc23)cc1 [SJ000523033]	−338.9
COc1ccc2nc3cc(Cl)ccc3c(NCCCNCc3nccn3C)c2c1 [SJ000521006]	−279.9
CCC(CC)CN(CCCCNc1ccnc2cc(Cl)ccc12)Cc1ccccc1 [SJ000361195]	25.54
COc1ccc2ncc(C(=O)c3ccccc3)c(N3CCN(C)CC3)c2c1 [SJ000247245]	−2.393
CCCN(CCCCNc1ccnc2cc(Cl)ccc12)Cc1sccc1C [SJ000311199]	6.494
O=C(O)c1ccccc1CN(CCCCNc1ccnc2cc(Cl)ccc12)Cc1ccccc1 [SJ000361203]	4.099
CCCN(CCCNc1c2ccc(Cl)cc2nc2ccc(OC)cc12)Cc1c(F)cccc1OC [SJ000522733]	−187.1
CCc1ccc2ncc(S(=O)(=O)c3ccc(C)c(C)c3)c(N3CCN(C)CC3)c2c1 [SJ000247332]	2.973
COc1ccc2nc3cc(Cl)ccc3c(NCCCNCC3CCOC3)c2c1 (stereo not shown) [SJ000521003]	−442.3
CCCN(CCCNc1c2ccc(Cl)cc2nc2ccc(OC)cc12)Cc1ccco1 [SJ000520935]	−202.6
CCCN(CCCNc1c2ccc(Cl)cc2nc2ccc(OC)cc12)Cc1cccc(C#N)c1 [SJ000522739]	−94.54
CCCCN(CCCCNc1ccnc2cc(Cl)ccc12)Cc1ccccc1 [SJ000357538]	27.64
Cc1ccc(S(=O)(=O)c2cnc3ccccc3c2N2CCN(c3ccc(C)cc3C)CC2)cc1 [SJ000117080]	3.172
COc1ccc2nc3cc(Cl)ccc3c(NCCCNCCCSC)c2c1 [SJ000523025]	−336.9
CCCN(CCCNc1c2ccc(Cl)cc2nc2ccc(OC)cc12)Cc1ccc(-c2ccccc2[N+](=O)[O-])o1 [SJ000523019]	−102.8
Oc1ccc(Br)cc1CN1CCC(Nc2ccnc3cc(Cl)ccc23)CC1 [SJ000311181]	−1.209
CCOc1ccc2ncc(S(=O)(=O)c3ccc(C)c(C)c3)c(N3CCN(C)CC3)c2c1 [SJ000247354]	−14.05
CCN(CC)CCCC(C)Nc1c2ccc(Cl)cc2nc2ccc(OC)cc12 (stereo not shown) [SJ000285202]	−265.7
COc1ccc2ncc(S(=O)(=O)c3ccccc3)c(N3CCN(c4cccc(C)c4C)CC3)c2c1 [SJ000117082]	−241.8
CCCN(CCCNc1c2ccc(Cl)cc2nc2ccc(OC)cc12)Cc1ccc(OC)c(OC)c1 [SJ000520957]	−175.5

Compound	TR-FRET signal
O=S(=O)(c1ccccc1)c1cnc2ccc(F)cc2c1N1CCN(c2ccccc2F)CC1 [SJ000315166]	−99.06
COc1ccc2nc3cc(Cl)ccc3c(NCCCNCc3ccc(Br)o3)c2c1 [SJ000523030]	−219.4
COc1ccc2nc3cc(Cl)ccc3c(NCCCNCc3c(F)cccc3OC)c2c1 [SJ000520915]	−298.8
CCCN(CCC)CCCNc1c2ccc(Cl)cc2nc2ccc(OC)cc12 [SJ000520917]	−288.2
Fc1ccc(CN(CCCCNc2ccnc3cc(Cl)ccc23)Cc2ccccc2)cc1F [SJ000361197]	26.09
COc1ccc2nc3cc(Cl)ccc3c(NCCCNCc3cccn3C)c2c1 [SJ000520985]	−402.5
CCCN(CCCNc1c2ccc(Cl)cc2nc2ccc(OC)cc12)Cc1ccc([N+](=O)[O-])o1 [SJ000523022]	−329.7
C#CCOCC(O)CN1CCN(c2cc(C(F)(F)F)nc3ccccc23)CC1 (stereo not shown) [SJ000228018]	−9.516
O=[N+]([O-])c1ccccc1CN(CCCCNc1ccnc2cc(Cl)ccc12)Cc1ccccc1 [SJ000361200]	17.21
COc1ccc2nc3cc(Cl)ccc3c(NCCCNCc3cccc(F)c3)c2c1 [SJ000521004]	−366.2
CCOC(=O)c1cnc2c(C(=O)OC)cccc2c1NCCN1CCOCC1 [SJ000184799]	4.043
CCN1CCN(c2c(S(=O)(=O)c3ccccc3)cnc3ccc(C)cc23)CC1 [SJ000083956]	−3.448
COc1ccc(O)c(CN(CCCCNc2ccnc3cc(Cl)ccc23)Cc2ccccc2)c1 [SJ000312696]	6.634
CCCN(CCCCNc1ccnc2cc(Cl)ccc12)Cc1ccccc1 [SJ000311205]	7.684
CCc1ccc2ncc(S(=O)(=O)c3ccc(OC)cc3)c(N3CCN(c4ccc(F)cc4)CC3)c2c1 [SJ000117064]	−9.084
COc1ccc2ncc(S(=O)(=O)c3ccc(C)cc3)c(N3CCN(c4ccccc4)CC3)c2c1 [SJ000117048]	−85.57
CCc1ccc(S(=O)(=O)c2cnc3ccccc3c2N2CCN(Cc3ccccc3)CC2)cc1 [SJ000117086]	−55.26
Cc1cccc(CN2CCC(Nc3ccnc4cc(Cl)ccc34)CC2)c1 [SJ000523101]	18.54
CCCN(CCCNc1c2ccc(Cl)cc2nc2ccc(OC)cc12)Cc1ccoc1 [SJ000520937]	−394.6

same assay, conditions: single point TR-FRET screening of quinoline compounds against MAGE-A11:PCF11; 15 μM

Compound	TR-FRET signal
CC(C)(C)CCNCCCNc1ccnc2cc(C(F)(F)F)ccc12 [SJ000521053]	27.36
COc1ccc(OC(F)(F)F)cc1CN(CCCNc1ccnc2cc(Cl)ccc12)Cc1ccccc1 [SJ000520452]	20.44
Clc1ccc2c(NCCCN(Cc3ccccc3)Cc3cccc4c3OCO4)ccnc2c1 [SJ000357598]	3.49
Clc1ccc2c(NCCCNCc3ccoc3)ccnc2c1 [SJ000520913]	−11.15
CCCCCCNCCCNc1ccnc2cc(Cl)ccc12 [SJ000361120]	22.25
COc1ccc(Oc2ccc3c(NCCCNCc4ccco4)ccnc3c2)cc1 [SJ000311218]	36.25
CCCN(CCCNc1c2ccc(Cl)cc2nc2ccc(OC)cc12)Cc1ccc2[nH]ccc2c1 [SJ000522732]	39.47
CCCN(CCCNc1ccnc2cc(C(F)(F)F)ccc12)Cc1ccccc1C(F)(F)F [SJ000361259]	4.988
CCCN(CCCNc1ccnc2cc(C(F)(F)F)ccc12)Cc1ccc(F)c(F)c1 [SJ000361272]	13.84
Clc1ccc2c(NCCCN(Cc3ccccc3)Cc3csc4ccccc34)ccnc2c1 [SJ000520454]	28.14
Clc1ccc2c(NCCCNCc3cc(Br)cs3)ccnc2c1 [SJ000521028]	22.11
O=C(O)c1ccccc1CN(CCCNc1ccnc2cc(Cl)ccc12)Cc1ccccc1 [SJ000361180]	9.598
Clc1ccc2c(NCCCNCc3ccc(Br)s3)ccnc2c1 [SJ000575193]	15.34
CCCN(CCCNc1ccnc2cc(C(F)(F)F)ccc12)Cc1cc(OC(F)(F)F)ccc1OC [SJ000520485]	5.6
CCCN(CCCNc1c2ccc(Cl)cc2nc2ccc(OC)cc12)Cc1cccnc1 [SJ000575152]	−23.4
CCCN(CCCNc1ccnc2cc(Cl)ccc12)CC1CCCCC1 [SJ000522751]	15.63
CCCN(CCCNc1ccnc2cc(C(F)(F)F)ccc12)Cc1cc(OC)ccc1F [SJ000520480]	11.96
CCCN(CCCNc1ccnc2cc(Cl)ccc12)Cc1cccnc1Br [SJ000523006]	13.31
CCCN(CCCNc1ccnc2cc(C(F)(F)F)ccc12)Cc1c(F)cccc1OC [SJ000361262]	29.23
CCCN(CCCNc1c2ccc(Cl)cc2nc2ccc(OC)cc12)Cc1ccc(C)o1 [SJ000520932]	0.9854

Compound	TR-FRET signal
COc1ccc(CN(CCCNc2ccnc3cc(Cl)ccc23)Cc2ccccc2)cc1OC [SJ000522742]	−0.5383
FC(F)(F)c1ccc2c(NCCCNCc3cc(Br)cs3)ccnc2c1 [SJ000521056]	32.72
CCCN(CCCNc1ccnc2cc(Cl)ccc12)Cc1cc(C(F)(F)F)ccc1OC [SJ000523012]	30.4
CCCN(CCCNc1c2ccc(Cl)cc2nc2ccc(OC)cc12)Cc1cc(F)cc(F)c1O [SJ000522982]	2.045
CCCN(CCCNc1ccnc2cc(Cl)ccc12)Cc1ccco1 [SJ000357458]	3.483
c1ccc(-c2ccc3c(NCCCNCc4ccco4)ccnc3c2)cc1 [SJ000311282]	28.69
CCOC(=O)c1cnc2c(C)cc(Cl)cc2c1NCCCN1CCOCC1 [SJ000174094]	−10.52
CCCN(CCCNc1ccnc2cc(Cl)ccc12)Cc1c[nH]c2ccc(F)cc12 [SJ000522992]	29.34
CCCN(CCCNc1c2ccc(Cl)cc2nc2ccc(OC)cc12)Cc1ccc(Cl)cc1Cl [SJ000520956]	9.598
FC(F)(F)c1ccc2c(NCCCNCc3ccc[nH]3)ccnc2c1 [SJ000361105]	41.69
CCCN(CCCNc1c2ccc(Cl)cc2nc2ccc(OC)cc12)Cc1ccc(N(C)C)cc1 [SJ000520955]	−10.06
CCCCCN(CCC)CCCNc1ccnc2cc(Cl)ccc12 [SJ000522754]	16.29
CCCN(CCCNc1ccnc2cc(Cl)ccc12)Cc1cc2ccccc2nc1Cl [SJ000522760]	12.8
Clc1ccc2c(NCCCN(Cc3ccccc3)CC3CC=CCC3)ccnc2c1 (stereo not shown) [SJ000311182]	16.09
CCCN(CCCNc1ccnc2cc(Cl)ccc12)Cc1cc(OC)ccc1F [SJ000522996]	26.66
CCCN(CCCNc1c2ccc(Cl)cc2nc2ccc(OC)cc12)Cc1ccc(Br)s1 [SJ000520924]	−56.45
CCCN(CCCNc1ccnc2cc(Cl)ccc12)Cc1c(F)c(F)c(F)c(F)c1F [SJ000522748]	19.87
CC(C)(C)CCNCCCNc1ccnc2cc(Cl)ccc12 [SJ000521026]	9.225
CCCN(CCCNc1ccnc2cc(C(F)(F)F)ccc12)Cc1ccc(OC)c(OC)c1 [SJ000523079]	14.66
COc1ccc2nc3cc(Cl)ccc3c(NCCCNCc3c(Cl)ccc(Cl)c3Cl)c2c1 [SJ000522960]	−81.49
